Laboratory results: PMC6379706, “Characterization of the interactions of chemically-modified therapeutic nucleic acids with plasma proteins using a fluorescence polarization assay” (Nucleic Acids Research, 2018)

Legend:
transferrin = biological target: T1, transferrin (Homo sapiens, UniProt P02787); experiment: fluorescence polarization, direct titration of dye with protein; assay type: binding
T1 construct: gene TF; purchased from Sigma Aldrich

human serum albumin = biological target: T2, human serum albumin (Homo sapiens, UniProt P02768); experiment: as above; assay type: binding
T2 construct: gene ALB; purchased human albumin, EMD Millipore (Calbiochem)
T2 sequence (P02768 25-609): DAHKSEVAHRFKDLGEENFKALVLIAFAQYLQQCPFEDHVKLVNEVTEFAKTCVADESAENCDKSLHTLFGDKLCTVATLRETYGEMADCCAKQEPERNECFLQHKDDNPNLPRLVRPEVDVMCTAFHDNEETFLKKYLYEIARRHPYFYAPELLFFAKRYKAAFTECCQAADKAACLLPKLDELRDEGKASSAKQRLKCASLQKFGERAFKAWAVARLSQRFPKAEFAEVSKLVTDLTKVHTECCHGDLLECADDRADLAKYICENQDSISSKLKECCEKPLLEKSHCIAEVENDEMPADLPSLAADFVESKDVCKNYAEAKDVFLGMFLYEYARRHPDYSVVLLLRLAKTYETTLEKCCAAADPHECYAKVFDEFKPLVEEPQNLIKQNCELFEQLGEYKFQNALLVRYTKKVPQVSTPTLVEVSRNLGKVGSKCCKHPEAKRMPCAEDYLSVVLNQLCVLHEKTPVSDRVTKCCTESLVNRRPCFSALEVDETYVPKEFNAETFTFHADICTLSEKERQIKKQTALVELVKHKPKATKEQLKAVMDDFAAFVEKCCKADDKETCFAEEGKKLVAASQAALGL

T1 sequence (P02787 20-698): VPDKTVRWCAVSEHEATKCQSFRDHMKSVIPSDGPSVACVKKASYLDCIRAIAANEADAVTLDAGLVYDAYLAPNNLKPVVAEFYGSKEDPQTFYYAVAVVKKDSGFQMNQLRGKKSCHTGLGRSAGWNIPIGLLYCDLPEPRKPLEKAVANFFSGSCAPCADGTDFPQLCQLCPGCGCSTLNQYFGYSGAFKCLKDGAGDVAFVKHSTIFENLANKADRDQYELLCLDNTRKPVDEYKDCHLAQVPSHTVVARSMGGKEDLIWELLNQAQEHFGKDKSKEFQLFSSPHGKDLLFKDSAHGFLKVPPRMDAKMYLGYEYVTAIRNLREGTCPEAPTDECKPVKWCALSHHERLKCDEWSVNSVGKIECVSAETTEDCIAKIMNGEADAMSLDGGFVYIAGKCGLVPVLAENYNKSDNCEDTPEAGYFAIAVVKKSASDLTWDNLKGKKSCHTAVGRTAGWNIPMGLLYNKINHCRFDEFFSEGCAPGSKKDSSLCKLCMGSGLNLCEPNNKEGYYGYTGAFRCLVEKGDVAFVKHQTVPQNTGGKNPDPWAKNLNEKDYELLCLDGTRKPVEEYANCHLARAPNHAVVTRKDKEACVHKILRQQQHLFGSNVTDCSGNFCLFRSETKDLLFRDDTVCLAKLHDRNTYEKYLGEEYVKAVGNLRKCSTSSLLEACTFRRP

Row | Kd (transferrin) [µM] | Kd (human serum albumin) [µM] | SMILES
1 | 380 | 791 | N=c1ccc2c(-c3ccc(C(=O)O)cc3C(=O)O)c3ccc(N)c(S(=O)(=O)O)c3oc-2c1S(=O)(=O)O [Alexa Fluor 488]
2 | 46.1 | 44.8 | CN1/C(=C/C=C/C=C/C2=[N+](CCCCCC(=O)O)c3ccccc3C2(C)C)C(C)(C)c2ccccc21 [Cy5]
3 | 502 | 138 | O=C(O)c1ccccc1-c1c2ccc(=O)cc-2oc2cc(O)ccc12 [fluorescein]
4 | 2020 | 568 | CN1/C(=C/C=C/C=C/C2=[N+](CCCCCC(=O)O)c3ccc(S(=O)(=O)O)cc3C2(C)C)C(C)(C)c2cc(S(=O)(=O)O)ccc21 [sCy5]
